Measured values from paper PMC8607422, “Development of a novel TLR8 agonist for cancer immunotherapy” (Molecular Biomedicine, 2020).

Columns and labels:
CYP 2C9 = target: T1, CYP 2C9 (Homo sapiens, UniProt P11712); experiment: CYP inhibition assay in human liver microsomes; format: in vitro ADME
T1 construct: using human liver microsomes (BD Gentest); tissue BD Gentest; host or cells: human liver microsomes
Description: (§1) CYP inhibition assay was conducted to evaluate the inhibitive potential of the compounds on CYP 1A2, 2C9, 2C19, 2D6 and 3A4 using human liver microsomes (BD Gentest). Curve-fitting was performed to calculate IC50 using a Sigmoidal (non-linear) dose-response model using GraphPad Prism (GraphPad Software Inc.).

CYP 3A4 = target: T2, CYP 3A4 (Homo sapiens, UniProt P08684); experiment: CYP inhibition assay in human liver microsomes; format: in vitro ADME
T2 construct: using human liver microsomes (BD Gentest); tissue BD Gentest; host or cells: human liver microsomes
Description: as §1

CYP 1A2 = target: T3, CYP 1A2 (Homo sapiens, UniProt P05177); experiment: CYP inhibition assay in human liver microsomes; format: in vitro ADME
T3 construct: using human liver microsomes (BD Gentest); tissue BD Gentest; host or cells: human liver microsomes
T3 sequence (P05177 1-516): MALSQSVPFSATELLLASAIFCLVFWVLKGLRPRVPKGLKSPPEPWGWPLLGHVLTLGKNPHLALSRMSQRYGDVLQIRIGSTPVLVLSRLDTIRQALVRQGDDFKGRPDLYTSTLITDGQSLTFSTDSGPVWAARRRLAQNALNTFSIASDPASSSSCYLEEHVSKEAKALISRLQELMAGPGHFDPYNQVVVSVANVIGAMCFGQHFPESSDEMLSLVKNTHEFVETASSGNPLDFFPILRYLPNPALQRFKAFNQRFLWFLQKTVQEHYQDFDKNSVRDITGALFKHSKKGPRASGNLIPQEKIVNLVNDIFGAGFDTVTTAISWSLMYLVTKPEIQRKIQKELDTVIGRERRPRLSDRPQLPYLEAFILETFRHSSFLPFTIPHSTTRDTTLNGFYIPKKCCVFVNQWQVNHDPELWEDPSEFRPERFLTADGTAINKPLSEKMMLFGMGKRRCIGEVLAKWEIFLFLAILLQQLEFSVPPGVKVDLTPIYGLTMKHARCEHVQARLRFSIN
Description: as §1

CYP 2C19 = target: T4, CYP 2C19 (Homo sapiens, UniProt P33261); experiment: CYP inhibition assay in human liver microsomes; format: in vitro ADME
T4 construct: using human liver microsomes (BD Gentest); tissue BD Gentest; host or cells: human liver microsomes
Description: as §1

[1] = Cell viability (ATPlite 1 Step) cytotoxicity assay; format: cell-based; conditions: human, HEK-Blue hTLR7 and hTLR8 cells
Text: HEK-Blue™ hTLR4, 7, 8 and 9 cell lines were purchased from InvivoGen (Hong Kong). The cells express the human TLR gene and NF-κB/AP-1-inducible SEAP (secreted embryonic alkaline phosphatase) reporter gene. SEAP levels produced upon TLR stimulation can be determined by QUANTI-Blue™. In the cell-based assay, the main reagents used were QUANTI-Blue™ (InvivoGen) and ATPlite 1 Step (Perkin Elmer). The main instruments used were the microplate reader SpectraMax 340PC (Molecular Device) and Envision (Perkin Elmer). Motolimod and DN052 were synthesized in house. […] The compounds were in 10 mM stock solution in DMSO and stored at − 20°C. The compounds were serially diluted in the concentration range from 0.5 nM to 15 μM (up to 50 μM in the hTLR4, hTLR7 and hTLR9 assays) and added to 96-well plates. DMSO was used as the negative control. LPS-EK, R848, motolimod and ODN2006 were used as the positive control for TLR4, 7, 8 and 9, respectively. The cells were cultured and treated with the compounds at 37°C, 5%CO2 for 24 h. […] After 1.5 h of incubation, the optical density was measured using the spectrophotometer at 650 nm in the microplate reader of SpectraMax 340PC. The cell viability of each well was determined using ATPlite 1 Step following the manufacturer’s instruction. The luminescence signal in each well of plates was measured in the microplate reader of Envision.

T1 sequence (P11712 whole entry): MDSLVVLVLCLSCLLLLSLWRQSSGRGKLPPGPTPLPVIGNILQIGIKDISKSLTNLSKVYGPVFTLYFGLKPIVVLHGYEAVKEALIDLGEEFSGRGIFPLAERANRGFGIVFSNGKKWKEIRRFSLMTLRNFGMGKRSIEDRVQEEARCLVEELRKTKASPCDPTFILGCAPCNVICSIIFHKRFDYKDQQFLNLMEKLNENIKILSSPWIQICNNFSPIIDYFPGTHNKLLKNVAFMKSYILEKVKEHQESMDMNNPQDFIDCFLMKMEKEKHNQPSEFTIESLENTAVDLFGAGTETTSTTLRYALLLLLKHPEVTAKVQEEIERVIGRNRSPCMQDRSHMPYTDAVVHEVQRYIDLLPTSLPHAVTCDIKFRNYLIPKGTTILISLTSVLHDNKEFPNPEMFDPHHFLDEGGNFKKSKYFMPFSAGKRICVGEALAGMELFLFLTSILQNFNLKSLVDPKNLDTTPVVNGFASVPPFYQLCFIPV
T4 sequence (P33261 whole entry): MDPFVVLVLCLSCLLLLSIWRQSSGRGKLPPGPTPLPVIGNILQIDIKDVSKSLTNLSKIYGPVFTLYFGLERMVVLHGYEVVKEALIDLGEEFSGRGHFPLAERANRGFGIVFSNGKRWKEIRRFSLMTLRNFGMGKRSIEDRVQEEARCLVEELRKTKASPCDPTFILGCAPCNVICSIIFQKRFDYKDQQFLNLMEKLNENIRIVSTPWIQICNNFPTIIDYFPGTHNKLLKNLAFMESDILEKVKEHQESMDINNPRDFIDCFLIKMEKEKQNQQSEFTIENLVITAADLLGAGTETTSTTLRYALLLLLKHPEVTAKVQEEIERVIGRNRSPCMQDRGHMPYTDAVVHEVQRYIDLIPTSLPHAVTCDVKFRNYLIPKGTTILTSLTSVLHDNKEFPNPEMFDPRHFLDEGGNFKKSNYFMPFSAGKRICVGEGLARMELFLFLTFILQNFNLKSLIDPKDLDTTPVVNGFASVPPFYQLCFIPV
T2 sequence (P08684 whole entry): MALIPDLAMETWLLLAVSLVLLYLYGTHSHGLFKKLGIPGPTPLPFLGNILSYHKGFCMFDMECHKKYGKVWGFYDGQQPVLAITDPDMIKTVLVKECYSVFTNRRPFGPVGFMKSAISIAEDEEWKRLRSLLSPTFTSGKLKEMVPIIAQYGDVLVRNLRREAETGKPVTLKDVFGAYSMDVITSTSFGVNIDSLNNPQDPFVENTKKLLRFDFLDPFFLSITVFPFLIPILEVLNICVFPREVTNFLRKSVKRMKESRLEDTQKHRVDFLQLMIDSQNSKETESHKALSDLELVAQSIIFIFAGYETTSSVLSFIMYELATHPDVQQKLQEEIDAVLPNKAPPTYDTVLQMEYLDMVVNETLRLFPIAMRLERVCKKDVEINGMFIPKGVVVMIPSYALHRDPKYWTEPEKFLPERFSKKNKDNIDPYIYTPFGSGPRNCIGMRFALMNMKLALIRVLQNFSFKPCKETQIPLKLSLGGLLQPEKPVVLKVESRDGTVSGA

IC50 (CYP 2C9): > 10 µM
IC50 (CYP 3A4): > 10 µM
IC50 (CYP 1A2): > 10 µM
IC50 (CYP 2C19): > 10 µM
SMILES: CCCN(CCC)C(=O)C1=Cc2ccc(-c3ccc(C(=O)N4CCCC4)cc3)cc2N=C(N)C1 [Motolimod, motolimod]
CC50 at 24 h [1]: > 50 µM
